Data published in the supplement of paper PMC13380429.

Columns and labels:
Conditions in all cases: 72 h
Calu-3 [1] = test: drug sensitivity score (DSS) for viability; higher = more toxic; extreme values may be limits of the assay
Caco-2 [2] = test: as above
Vero E6 [3] = test: as above
HepG2 [4] = test: as above
U2OS [5] = test: as above
Calu-3 [6] = test: relative viability EC50 (midpoint between 100% and the lowest measured viability); higher = less toxic
Caco-2 [7] = test: as above
Vero E6 [8] = test: as above
HepG2 [9] = test: as above
U2OS [10] = test: as above
Calu-3 [11] = test: cell viability relative to DMSO; higher = less toxic
Caco-2 [12] = test: as above
Vero E6 [13] = test: as above
HepG2 [14] = test: as above
U2OS [15] = test: as above

Compound | drug sensitivity score (Calu-3 [1]) | drug sensitivity score (Caco-2 [2]) | drug sensitivity score (Vero E6 [3]) | drug sensitivity score (HepG2 [4]) | drug sensitivity score (U2OS [5]) | relative viability EC50 (Calu-3 [6]) [µM] | relative viability EC50 (Caco-2 [7]) [µM] | relative viability EC50 (Vero E6 [8]) [µM] | relative viability EC50 (HepG2 [9]) [µM] | relative viability EC50 (U2OS [10]) [µM] | cell viability (Calu-3 [11]; 1 nM) [%] | cell viability (Calu-3 [11]; 10 nM) [%] | cell viability (Calu-3 [11]; 100 nM) [%] | cell viability (Calu-3 [11]; 1000 nM) [%] | cell viability (Calu-3 [11]; 10000 nM) [%] | cell viability (Caco-2 [12]; 1 nM) [%] | cell viability (Caco-2 [12]; 10 nM) [%] | cell viability (Caco-2 [12]; 100 nM) [%] | cell viability (Caco-2 [12]; 1000 nM) [%] | cell viability (Caco-2 [12]; 10000 nM) [%] | cell viability (Vero E6 [13]; 1 nM) [%] | cell viability (Vero E6 [13]; 10 nM) [%] | cell viability (Vero E6 [13]; 100 nM) [%] | cell viability (Vero E6 [13]; 1000 nM) [%] | cell viability (Vero E6 [13]; 10000 nM) [%] | cell viability (HepG2 [14]; 1 nM) [%] | cell viability (HepG2 [14]; 10 nM) [%] | cell viability (HepG2 [14]; 100 nM) [%] | cell viability (HepG2 [14]; 1000 nM) [%] | cell viability (HepG2 [14]; 10000 nM) [%] | cell viability (U2OS [15]; 1 nM) [%] | cell viability (U2OS [15]; 10 nM) [%] | cell viability (U2OS [15]; 100 nM) [%] | cell viability (U2OS [15]; 1000 nM) [%] | cell viability (U2OS [15]; 10000 nM) [%]
CNC(=O)c1cc(COc2nnc(Nc3ccc(Cl)cc3)c3ccoc23)ccn1 [telatinib] | 0 | 0 | 0 | 0 | 0 | > 10 | > 10 | > 10 | > 10 | > 10 | 106 | 106 | 98.8 | 96.6 | 104 | 96.6 | 95.4 | 99.3 | 97.2 | 98.8 | 92.7 | 95.5 | 92.1 | 93.3 | 102 | 85.9 | 106 | 97.7 | 101 | 114 | 101 | 97.6 | 101 | 98 | 92.4
Cn1c(=O)[nH]c2ncn(C)c2c1=O [paraxanthine] | 0 | 0 | 0 | 0 | 0 | > 10 | > 10 | > 10 | > 10 | > 10 | 94.9 | 101 | 92.9 | 89.8 | 98.1 | 95.4 | 106 | 97.4 | 102 | 91.8 | 95.5 | 95.8 | 99.2 | 93.5 | 98.2 | 102 | 100 | 106 | 103 | 93.2 | 97.4 | 101 | 98.2 | 100 | 99.7
CC(C)c1ccccc1Cc1cc(C(=O)Nc2ccc(S(=O)(=O)c3ccccc3C(C)(C)C)cc2)c(O)c(O)c1O [TW-37] | 6.2 | 13.1 | 12 | 10.6 | 13 | 1.75 | 0.557 | 0.746 | 0.704 | 0.654 | 107 | 98.1 | 107 | 86 | 28.8 | 88.7 | 89.7 | 93.5 | 36.7 | 9.2 | 92.1 | 102 | 96.1 | 43.2 | 7.7 | 98.8 | 98.6 | 96.1 | 49.6 | 20.3 | 102 | 94.7 | 95.7 | 36.5 | 4.6
O=C(OCCN1CCCCC1)c1c[nH]c2ccccc12 | 0 | 0 | 0 | 0 | 0 | > 10 | > 10 | > 10 | > 10 | > 10 | 106 | 104 | 97.7 | 103 | 91.3 | 99.3 | 97.2 | 95.3 | 96.3 | 99.4 | 98.7 | 95.6 | 95.4 | 95.8 | 104 | 102 | 93.8 | 98.2 | 106 | 94.4 | 96.8 | 104 | 97.6 | 102 | 94.3
CN1CCC[C@@H]1CCSc1ccc(O)cc1 [SIB-1553A] | 0 | 0 | 0 | 0 | 0 | > 10 | > 10 | > 10 | > 10 | > 10 | 98.7 | 103 | 98.6 | 91.6 | 99.3 | 94.4 | 100 | 99.7 | 102 | 105 | 106 | 95.7 | 97.5 | 96 | 104 | 95 | 88.9 | 95.4 | 88.1 | 111 | 97.9 | 101 | 97.1 | 101 | 106
CC[C@@H]1C(=O)N(C)c2cnc(Nc3ccc(C(=O)N[C@H]4CC[C@H](N5CCN(CC6CC6)CC5)CC4)cc3OC)nc2N1C(C)C [volasertib] | 7 | 11.5 | 16.3 | 23.2 | 14.7 | 1.67 | 0.36 | 0.386 | 0.081 | 0.293 | 112 | 86.8 | 91.3 | 83.3 | 22.1 | 104 | 93.2 | 74 | 57.8 | 26.7 | 101 | 98 | 90.6 | 18.3 | 1.5 | 106 | 104 | 42.7 | 17.6 | 9.1 | 99 | 99.4 | 87.2 | 29.1 | 18.7
Cc1cc(C(=O)Nc2cccc(C(=O)Nc3cccc(C(F)(F)F)c3)c2)on1 | 0 | 0 | 0 | 1.5 | 0 | > 10 | > 10 | > 10 | > 10 | > 10 | 93.7 | 99.8 | 99.7 | 102 | 99.8 | 96.2 | 96.6 | 89.5 | 101 | 105 | 100 | 99.4 | 96.7 | 97.3 | 103 | 103 | 92.3 | 109 | 92.9 | 79.1 | 99 | 99.3 | 94.8 | 104 | 104
